Experimental data: US7872002B2, “Therapeutic pyrazoloquinoline derivatives” (Helicon Therapeutics, Inc., priority 2007, dated 2011)

Target: GABAA central benzodiazepine receptor
Experiment: Benzodiazepine Binding Assay ((3H)-flunitrazepam, rat whole brain except cerebellum)
Conditions: read-out: BZ binding assay (IC50); 1 nM (3H)-flunitrazepam, 60 minutes at 25° C., pH 7.4; with or without 30 μM GABA

IC50 [nM] | Compound
1 to 1000 | O=c1c2c[nH]c3c(N4CCOCC4)cc(N4CCOCC4)cc3c-2nn1-c1ccccc1 [Compound 58a, 6,8-Bis(morpholin-4-yl)-2-phenyl-2,5-dihydro-pyrazolo[4,3-c]quinolin-3-one]
1 to 1000 | CC(C)N1CCN(c2cc(N3CCN(C(C)C)CC3)c3[nH]cc4c(=O)n(-c5ccccc5)nc-4c3c2)CC1 [Compound 58b, 6,8-Bis(4-iso-propylpiperazin-1-yl)-2-phenyl-2,5-dihydro-pyrazolo[4,3-c]quinolin-3-one]
